The IC50 is the concentration that gives 50% inhibition. Usually Ki stands for the dissociation constant of the complex between target and ligand, obtained from inhibition or displacement.

Entries after “also recorded” stand apart in the source; their conditions may differ. Where two headings read alike, the source gives them in different places.

From PMC6010085, “Inhibition of protein tyrosine phosphatase (PTP1B) and α-glucosidase by geranylated flavonoids from Paulownia tomentosa” (Journal of Enzyme Inhibition and Medicinal Chemistry, 2017) come the findings set out here.

Test [1] concerns the target T1, recombinant human protein tyrosine phosphate 1B (PTP1B, EC 3. 1. 3. 48) (Homo sapiens, UniProt P18031).
T1 sequence (P18031 1-435): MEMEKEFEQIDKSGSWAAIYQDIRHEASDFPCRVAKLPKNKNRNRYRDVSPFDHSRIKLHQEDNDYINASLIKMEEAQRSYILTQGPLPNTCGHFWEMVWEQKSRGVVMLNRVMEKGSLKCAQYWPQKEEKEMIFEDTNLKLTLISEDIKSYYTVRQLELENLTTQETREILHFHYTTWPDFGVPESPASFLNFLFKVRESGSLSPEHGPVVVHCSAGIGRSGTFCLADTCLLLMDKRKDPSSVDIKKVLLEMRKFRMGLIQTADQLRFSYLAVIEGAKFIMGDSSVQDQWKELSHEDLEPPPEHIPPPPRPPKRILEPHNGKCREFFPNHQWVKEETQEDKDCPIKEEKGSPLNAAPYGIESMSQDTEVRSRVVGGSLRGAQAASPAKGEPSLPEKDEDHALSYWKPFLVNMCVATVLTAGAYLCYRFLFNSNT
Nature of the test: biochemical. Format: biochemical. On the set-up: Vmax: unit not given here. Conditions: for PTP1B type of inhibition: Lineweaver–Burk / secondary plots; for Vmax / Kik/Kiv: pNPP; for Kik/Kiv: Yang's method. How it is done:
The PTP1B inhibitory assay was carried out using a slight modification to literature reported method. p-nitrophenyl phosphate (pNPP) was used as a substrate for the measurement of enzyme activity. Buffer solution consisted of 25 mM Tris–HCl (pH 7.5), 2 mM β-mercaptoethanol, 1 mM (ethylenediaminetetraacetic acid) EDTA, and 1 mM dithiothreitol (DTT). The assay was performed by adding 10 μL test compound solution to 20 μL of enzyme (1 μg/ml), and then mixing with 40 μL of 4 mM pNPP in 130 μL of the given buffer using 96 well plate at 37 °C for 10 min. […] Lineweaver–Burk and Dixon plots methods were used to determine kinetic parameters. Sigma Plot (SPCC Inc., Chicago, IL) was used to calculate these parameters.
(§1) Lineweaver–Burk plots were used for the analysis of enzyme’s inhibitory kinetics, caused by the tested bioactive compounds, and its comparison was performed with the data collected in the absence of inhibitors. Steady-state rates were determined at different inhibitor concentrations and at changing concentrations of substrate, then enzyme inhibition mechanism and related kinetic parameters were determined. Where applicable, KI and KIS, the two inhibition constants, when inhibitor binds with either free enzyme or the complex of enzyme–substrate, were derived from secondary plots of the slopes of the straight lines and vertical intercept (1/V^appmax), versus inhibitors concentrations. Equations (1)–(3) are the representatives equations for derivation of KI and KIS, respectively.
(§2) To determine enzyme inhibition parameters, an experiment was performed having substrate concentrations range (pNPP; 0.4–1.6 mM, pNPG; 0.075–0.3 mM), and different concentrations of tested compound, as indicated. To find out each curve parameter, a nonlinear regression program was used for data analysis using sigma Plot. Similarly Km and Vmax were derived from Lineweaver–Burk plots. Kik and Kiv rate constants were calculated according to Equations (4) and (5) proposed by Yang’s method. While Excel was used for linear regression analysis. (4) Km=Km,0×(1+[I]/Kik) (5) Vm=[…]
First of all, the individual isolated constituents (1–8) from P. tomentosa fruits were tested in an in vitro PTP1B inhibition assay, using recombinant human protein tyrosine […] 1B (EC 3. 1. 3. 48)^1.

Test [2] addresses α-glucosidase (EC 3.2.1.20. from Baker's Yeast) (Saccharomyces cerevisiae, UniProt P53341). Nature of the test: α-Glucosidase enzymatic assay (pNPG hydrolysis) and kinetic analysis. Format: biochemical. To be noted: for α-Glucosidase type of inhibition: Lineweaver–Burk and Dixon plots; for Vmax / Kik/Kiv: α-glucosidase, pNPG; for Kik/Kiv: Yang's method. How it is done: The α-glucosidase inhibitory activity was measured using reported experimental method with slight modifications. Phosphate buffer [50 mM potassium phosphate (pH 6.8)] was used for the whole assay. p-nitrophenyl-α-D-glucopyranoside (pNPG) was used as substrate, whose concentration 1.2 mM was prepared in phosphate buffer. Stock solution of α-glucosidase (EC 3.2.1.20. from Baker’s Yeast) containing 0.45 units of enzyme was also prepared in phosphate buffer. DMSO was used as a solvent for dissolving the test compounds, which were then diluted to their respective concentrations. Enzymatic assay was performed by mixing 40 μl of substrate (final concentration 0.15 mM) with 10 μl of inhibitors/vehicle, 130 μl phosphate buffer and 20 μl of enzyme in 96 well plate. As a result of the catalytic reaction, p-nitrophenol was produced as a reaction product which was subsequently measured using spectra max M3 multi-mode microplate reader (Molecular Devices) at 37 °C, at 405 nm for 15 min. […] The experiments were performed in triplicate.
as §1, §2

Where [3] appears, read: PTP1B, secondary plots, read-out: KI (inhibitor binds with free enzyme).
The mark [4] stands for this setting: from Dixon plots, read-out: PTP1B Ki (inhibition constant).
Where [5] appears, read: pNPP substrate, triplicate, read-out: PTP1B IC50.

α-glucosidase (EC 3.2.1.20. from Baker's Yeast), sequence (P53341 whole entry): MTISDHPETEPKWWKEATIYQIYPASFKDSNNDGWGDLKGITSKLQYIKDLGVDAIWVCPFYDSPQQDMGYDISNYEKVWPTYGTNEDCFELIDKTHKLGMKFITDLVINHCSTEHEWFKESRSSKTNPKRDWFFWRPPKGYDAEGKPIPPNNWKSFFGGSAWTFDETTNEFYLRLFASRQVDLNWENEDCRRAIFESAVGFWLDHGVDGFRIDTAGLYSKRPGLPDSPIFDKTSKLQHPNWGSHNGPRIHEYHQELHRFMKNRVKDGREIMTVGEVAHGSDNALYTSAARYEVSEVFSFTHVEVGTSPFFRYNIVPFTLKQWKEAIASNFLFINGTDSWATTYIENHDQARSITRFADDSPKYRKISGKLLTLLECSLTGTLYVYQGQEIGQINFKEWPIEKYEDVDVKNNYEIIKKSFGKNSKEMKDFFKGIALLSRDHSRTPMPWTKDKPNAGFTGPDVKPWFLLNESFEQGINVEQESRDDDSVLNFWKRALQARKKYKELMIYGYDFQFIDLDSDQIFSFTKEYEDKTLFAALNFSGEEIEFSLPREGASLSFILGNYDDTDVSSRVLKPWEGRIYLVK

Turning to `CC(C)=CCC/C(C)=C/Cc1c(O)cc2c(c1O)C(=O)C[C@@H](c1ccc(O)cc1)O2` [Compound 1, mimulone], the IC50 in test [1] is 1.9 ± 0.1 µM. Further, the Ki in test [1] (KI (inhibitor binds with free enzyme), PTP1B, secondary plots, text without unit) came out at 0.4 µM; in test [1] (PTP1B Ki (inhibition constant), from Dixon plots), 0.8 ± 0.1 µM. Further, the “PTP1B type of inhibition” value in test [1] is “Mixed TypeⅠ; also recorded: mixed type Ι; also recorded: Mixed Type I”. Further, the Vmax amounted to 0.012 in test [1] (PTP1B, [I] 0.78 µM); 0.009 in test [1] (PTP1B, [I] 1.56 µM); 0.007 in test [1] (PTP1B, [I] 3.13 µM); 0.117 in test [2] ([I] 12.5 µM); 0.082 in test [2] ([I] 25 µM); 0.054 in test [2] ([I] 50 µM). Further, the Kik/Kiv in test [1] (PTP1B, [I] 0.78 µM) was 2.660; in test [1] (PTP1B, [I] 1.56 µM), 3.335; in test [1] (PTP1B, [I] 3.13 µM), 3.694; in test [2] ([I] 12.5 µM), 12.42; in test [2] ([I] 25 µM), 19.34; in test [2] ([I] 50 µM) it was 27.48. Further, the “KIS (inhibitor binds with enzyme-substrate complex)” value in test [1] (PTP1B, secondary plots) amounted to 2.2 ± 0.1 µM; in test [1] (PTP1B, secondary plots, text without unit), 2.2. The “reversibility of PTP1B inhibition” value in test [1] (initial velocity versus enzyme concentration at different inhibitor concentrations) was “reversible inhibitor”. In addition, in test [2], the “α-Glucosidase type of inhibition” value is reported as “Noncompetitive”.
As to `COc1cc([C@@H]2CC(=O)c3c(cc(O)c(C/C=C(\C)CCC=C(C)C)c3O)O2)ccc1O` [Compound 2, 3′-O-methyldiplacone], the “PTP1B type of inhibition” value in test [1] is recorded as “Mixed TypeⅠ; also recorded: Mixed Type I”. For the same compound, the “KIS (inhibitor binds with enzyme-substrate complex)” value in test [1] (PTP1B, secondary plots) worked out at 3.7 ± 0.2 µM. Moreover, the Ki was determined as 2.6 ± 0.1 µM in test [1] (setting [3]) and 3.2 ± 0.2 µM in test [1] (setting [4]). In addition, in test [1] (setting [5]), the IC50 is 3.9 ± 0.3 µM. Moreover, in test [2], the “α-Glucosidase type of inhibition” value was “Noncompetitive”.
For `COc1ccc([C@@H]2CC(=O)c3c(cc(O)c(C/C=C(\C)CCC=C(C)C)c3O)O2)cc1O` [Compound 3, 4′-O-methyldiplacone], in test [1], the “PTP1B type of inhibition” value is on record as “Mixed TypeⅠ; also recorded: Mixed Type I”. Also, in test [1] (PTP1B, secondary plots), the “KIS (inhibitor binds with enzyme-substrate complex)” value turned out to be 10.1 ± 0.4 µM. Also, the values for the Ki in test [1] (setting [3]) and in test [1] (setting [4]) were 5.7 ± 0.3 µM and 8.1 ± 0.6 µM, respectively. Further, the IC50 in test [1] (setting [5]) is 7.8 ± 0.6 µM. Also, the “α-Glucosidase type of inhibition” value in test [2] was “Noncompetitive”.
Regarding `COc1c(O)cc(C2CC(=O)c3c(cc(O)c(C/C=C(\C)CCC=C(C)C)c3O)O2)cc1O` (stereo not drawn) [Compound 4, 6-geranyl-3′,5,5′,7-tetrahydroxy-4′-methoxyflavanone], the “PTP1B type of inhibition” value in test [1] is listed as “Mixed TypeⅠ; also recorded: Mixed Type I”. Moreover, in test [1] (PTP1B, secondary plots), the “KIS (inhibitor binds with enzyme-substrate complex)” value worked out at 11.2 ± 0.4 µM. For the same compound, the Ki in test [1] (setting [3]) stood at 5.5 ± 0.3 µM; in test [1] (setting [4]), 6.1 ± 0.5 µM. Also, the IC50 in test [1] (setting [5]) came to 5.9 ± 0.4 µM. Moreover, the “α-Glucosidase type of inhibition” value in test [2] is on record as “Noncompetitive”.
As for `COc1cc([C@@H]2CC(=O)c3c(cc(O)c(C/C=C(\C)CCC=C(C)C)c3O)O2)cc(OC)c1O` [Compound 5, 3′-O-Methyl-5′-O-methyldiplacone], in test [1], the “PTP1B type of inhibition” value is reported as “Mixed TypeⅠ; also recorded: Mixed Type I”. In addition, in test [1] (PTP1B, secondary plots), the “KIS (inhibitor binds with enzyme-substrate complex)” value turned out to be 4.6 ± 0.2 µM. Besides, the inhibition constant Ki in test [1] (setting [3]) amounted to 2.8 ± 0.2 µM; in test [1] (setting [4]), 3.5 ± 0.3 µM. In test [1] (setting [5]), the IC50 is 3.8 ± 0.3 µM. Further, the “α-Glucosidase type of inhibition” value in test [2] is listed as “Noncompetitive”.
As to `COc1cc([C@H]2Oc3cc(O)c(C/C=C(\C)CCC=C(C)C)c(O)c3C(=O)[C@@H]2O)ccc1O` [Compound 6, 3′-O-methyldiplacol], the “PTP1B type of inhibition” value in test [1] was “Mixed TypeⅠ; also recorded: mixed type Ι; also recorded: Mixed Type I”. Also, the “KIS (inhibitor binds with enzyme-substrate complex)” value in test [1] (PTP1B, secondary plots) was 5.2 ± 0.2 µM. In addition, the Ki in test [1] (setting [3]) amounted to 3.5 ± 0.2 µM; in test [1] (setting [4]), 3.8 ± 0.3 µM. Further, the IC50 in test [1] (setting [5]) was 4.9 ± 0.5 µM. Further, the “α-Glucosidase type of inhibition” value in test [2] was “Noncompetitive”.
With `COc1ccc([C@H]2Oc3cc(O)c(C/C=C(\C)CCC=C(C)C)c(O)c3C(=O)[C@@H]2O)cc1O` [Compound 7, 4′-O-methyldiplacol], the “PTP1B type of inhibition” value in test [1] is listed as “Mixed TypeⅠ; also recorded: Mixed Type I”. Also, in test [1] (PTP1B, secondary plots), the “KIS (inhibitor binds with enzyme-substrate complex)” value came to 13.7 ± 0.6 µM. For the same compound, the Ki in test [1] (setting [3]) amounted to 6.9 ± 0.4 µM; in test [1] (setting [4]) it was 7.9 ± 0.4 µM. Besides, in test [1] (setting [5]), the IC50 worked out at 8.2 ± 0.6 µM. Further, the “α-Glucosidase type of inhibition” value in test [2] is reported as “Noncompetitive”.
For the compound `COc1c(O)cc([C@H]2Oc3cc(O)c(C/C=C(\C)CCC=C(C)C)c(O)c3C(=O)[C@@H]2O)cc1O` [Compound 8], in test [1], the “PTP1B type of inhibition” value was “Mixed TypeⅠ; also recorded: Mixed Type I”. For the same compound, the “KIS (inhibitor binds with enzyme-substrate complex)” value in test [1] (PTP1B, secondary plots) turned out to be 10.3 ± 0.5 µM. The Ki in test [1] (setting [3]) was determined as 5.9 ± 0.3 µM; in test [1] (setting [4]) it was 6.2 ± 0.4 µM. Also, the IC50 in test [1] (setting [5]) was 6.6 ± 0.5 µM. Besides, the “α-Glucosidase type of inhibition” value in test [2] is recorded as “Noncompetitive”.
In test [2] (pNPG substrate, triplicate), `[Na+].[Na+].[Na+].[O]=[V]([O-])([O-])[O-]` [NaVO4, reference compound] displayed an IC50 of more than 200 µM.
